From patent US20180369186A1, “METHOD FOR MODULATING AUTOPHAGY AND APPLICATIONS THEREOF” (JAWAHARLAL NEHRU CENTRE FOR ADVANCED SCIENTIFIC RESEARCH, priority 2015, published 2018)

How the values were obtained:
yeast cells = assay: Yeast growth assay (WT EGFP cells); type: cell-based, S. cerevisiae; conditions: 50 μM
Procedure: (§1) Growth assays: In a 384 well plate, appropriate yeast strains are seeded (A600˜0.07) with and without drugs and incubated (80 μl, 30° C. and 420 rpm) in a multiplate reader (Varioskan Flash, Thermo Scientific) for 48 h with automatic absorbance (A600) recording every 20 min. Growth curves are plotted and analyzed using GraphPad Prism.
(§2) Appropriate yeast strains are seeded (A600 ˜0.07) with or without drugs in a 384-well plate and incubated (420 rpm, 30° C. and 80 μl) in a multiplate reader (Varioskan Flash, Thermo Scientific) for 48 h that records absorbance (A600) automatically for every 20 min. Growth curves are plotted using GraphPad Prism.

LC3B-II = assay: LC3 processing assay in HeLa cells; type: cell-based, human
Procedure: For EGFP-α-synuclein degradation assay, equal numbers of sub-confluent SH-SY5Y cells are seeded in 6 well dishes and allowed to attach for 24 h. Cells are transfected with EGFP-α-synuclein plasmid using Lipofectamine 2000 (Life technologies) and allowed to express for 24 h.
After treatments, cells are collected in Laemmli buffer to perform LC3 processing assay, P70S6K, GSK3β and 4E-BP1 immunoblotting. To validate EGFP-α-synuclein degradation by 6-Bio, treated cells are scraped and collected in growth medium. After washing with phosphate buffer, pellets are lysed in Laemmli buffer and boiled for 10 min.
Samples are electrophoresed on SDS-PAGE (8-15%) and then transferred onto PVDF (Bio-Rad) membrane using Transblot turbo (Bio-Rad). Transferred blots are stained with Ponceau S, probed with appropriate primary antibodies overnight and subsequently horseradish peroxidase conjugated secondary antibody. Signals are developed using enhanced chemiluminescence substrate (Clarity, Bio-Rad), imaged using a gel documentation system (G-Box, Syngene) and bands are quantified using image software (NIH). (FIGS. 4F and 5A)

[1] = system: SH-SY5Y cells overexpressing EGFP-α-synuclein; assay: Cell viability of SH-SY5Y cells overexpressing α-synuclein (CellTitre-Glo); type: cell-based, human
Procedure: SH-SY5Y cells are seeded on a 96 well plate and transfected with GFP-SNCA only and/or is cotransfected with shRNA GSK3B and GFP-SNCA. To cells, the drugs were added (24 h) after 48 h of transfection. Then, the cell viability was measured using the CellTitre-Glo® (Promega) and luminescence was measured using Varioskan Flash (Thermo Scientific).
SH-SY5Y cells are seeded onto tissue culture treated 96 well plate and then transfected with EGFP-α-synuclein only and/or co-transfected with siRNA. To cells, appropriate drugs are added (24 h) after 48 h of transfection. Using luminescence-based CellTitre-Glo® (Promega) kit, the cell viability is assayed using automated microtitre plate reader Varioskan Flash (Thermo Scientific) […].

α-synuclein toxicity = assay: S. cerevisiae α-synuclein toxicity model, growth assay; type: cell-based; conditions: 50 μM
Procedure: To screen small molecule library LOPAC1280 in S. cerevisiae SNCA toxicity model, working plates containing 50 μM drugs in 1.5% DMSO (190 compounds/plate) are prepared in a 384 well format. WT SNCA-GFP with or without small molecules and untreated WT GFP are grown under optimized conditions (80 μl, 30° C. and 420 rpm) for 36 h in a plate reader (Varioskan Flash, Thermo Scientific) in duplicates with automatic absorbance (A600) recording every 20 min. Growth curves of untreated WT GFP and WT SNCA-GFP strains are plotted and mid to late exponential phase time point of untreated WT GFP strain is chosen as reference for data analysis. Its corresponding time point of untreated and drug treated WT SNCA-GFP strains are plotted separately in a box plot. Small molecules that rescued the growth lag by ≥3 SD units of untreated WT SNCA-GFP strain are considered as ‘Hits’.
as §1
Induction of α-synuclein-EGFP aggregates: To induce α-synuclein-EGFP aggregates, the corresponding strains are inoculated in SD-Ura medium, Secondary culture is inoculated from primary inoculum and incubated till A600 reaches 0.8/ml. Cells are washed twice with sterile water and aggregates are induced by adding SG-Ura for 12-16 h.
To screen small molecule library LOPAC^1280 in S. cerevisiae α-synuclein toxicity model, working plates containing 50 μM drugs (small molecule) in 1.5% DMSO (190 compounds/plate) are prepared in a 384 well format. WT α-synuclein-EGFP with and without small molecules and untreated WT EGFP are grown under optimized conditions (80 μl, 30° C. and 420 rpm) for 36 h in a plate reader (Varioskan Flash, Thermo Scientific) in duplicates with automatic absorbance (A600) recording every 20 min.
Growth curves of untreated WT EGFP and WI α-synuclein-EGFP strains are plotted and mid to late exponential phase time point of untreated WT EGFP strain is chosen as reference for data analysis. Its corresponding time point of untreated and drug treated WT α-synuclein-EGFP strains are plotted separately in a box plot.
as §2

lysosome = assay: Lysosomal function (lysotracker, LAMP1) in HeLa cells; type: cell-based, human
EGFR = EGFR trafficking (endocytosis-mediated EGFR degradation); type: cell-based, human; conditions: HeLa; 100 ng/ml EGF; 0-3 hours
Procedure: HeLa cells are plated on 6 well plates and allowed to attach on the surface. The cells are washed with PBS and then starved in DMEM (serum free media) for 3 hours. Pre-treatment with compounds is carried out for 1 hour, following which they are pulsed with 100 ng/ml of EGF and samples are collected at 0, 1, 2 and 3 hours.

p62/SQSTM1 = assay: p62 aggregate immunofluorescence in MEFs; type: cell-based, mouse; conditions: 5 μM, 24 h and 48 h
Procedure: Immunofluorescence analysis in MEFs is carried out by fixing the cells with 4% methanol free paraformaldehyde for 15 minutes, permeabilised with 0.5% TritonX-100 in PBS for 10 minutes, and then blocking with 5% FES in PBS for 30 minutes at room temperature, along with PBS washes in between every steps. Anti-p62 antibody (Progen Biotechnik, GP62-C) is used at 1:250 dilution in […] in PBS and incubated overnight at 4° C. Cells are then washed and incubated with goat anti-guinea pig Alexa 594 (ThermoFisher Scientific, A-15 11076) secondary antibody at 1:1000 dilution for 1 hour at room temperature. Cells are washed, counterstained with DAPI (ThermoFisher Scientific, D1306) in PBS for 5 minutes, washed again and then mounted using Prolong diamond anti-fade reagent (ThermoFisher Scientific, P36970). Slides are imaged using a Zeiss LSM 510 Meta Confocal Microscope using 100× objective. Analysis is performed by assessing for the percentage of cells displaying an accumulation of endogenous p62-positive aggregates.
Analysis of p62 aggregates is done as described previously. […] The percentage of cells with increased p62+ aggregates is quantified by assessing 200 cells per condition from independent experiments, in which a cell with an accumulation of p62+ aggregates was given a score of 1 whereas a cell having basal (low) levels of p62+ aggregates was given a score of 0.

## O=C1Nc2cc(Br)ccc2/C1=C1/Nc2ccccc2/C1=N\O [6-Bio, (2′Z,3′E)-6-Bromoindirubin-3′-oxime]
Yeast cells
  effect on growth of yeast cells: does not affect the growth of yeast cells
LC3B-II; 2 h
  LC3-II levels: increases LC3-II
LC3B-II; with lysosomal protease inhibitors, vs 6-Bio only
  LC3B-II accumulated in presence of E64D and Pepstatin A: significantly more
[1]; SNCA over expressed for 72 h
  cell viability of SNCA over expressed SH-SY5Y cells: significantly increased
[1]; shRNA GSK3B silenced, SNCA over expressed
  cytoprotection when GSK3B expression is silenced: marginal cytoprotection
α-synuclein toxicity; WT α-synuclein-EGFP strain
  rescue of growth lag due to α-synuclein toxicity: rescues the growth lag
α-synuclein toxicity; atg1Δ, atg5Δ, atg8Δ, atg11Δ and atg15Δ
  rescue of growth lag in autophagy mutants expressing α-synuclein: fails to rescue growth lag
lysosome
  LAMP1 positive vesicle intensities and distribution: unaltered
lysosome; 2 h
  lysotracker staining (lysosome acidification): no change in lysosome acidification

## Cc1ccc(S(=O)(=O)/C=C/C#N)cc1 [Bay11, 3-[(4-methylphenyl)sulfonyl]-(2E)-propenenitrile]
EGFR
  degradation of EGFR over time upon EGF treatment: no difference in the degradation of EGFR
p62/SQSTM1
  endogenous p62 aggregates: significant accumulation of endogenous p62 aggregates

## COc1cc(C=C(C#N)C(=O)Nc2nnc(C(F)(F)F)s2)ccc1OCc1ccc(C(F)(F)F)cc1C(F)(F)F [XCT 790, 3-[4-(2,4-Bis-trifluoromethylbenzyloxy)-3-methoxyphenyl]-2-cyano-N-(5-trifluoromethyl-1,3,4-thiadiazol-2-yl)acrylamide]
Yeast cells
  effect on growth of yeast cells: does not affect the yeast growth
[1]; α-syn over expressed cells, 5 μM
  increase in cell viability, untreated vs treated: ~4 fold
[1]; α-syn over expressed cells, with 3-MA
  cell viability, XCT 790 vs XCT 790+3-MA: ~4 fold
α-synuclein toxicity; WT α-syn cells
  rescue of growth lag, treated vs untreated: ~3.2 fold
